Assay results: patent US10851071B2, “M-dihydroxybenzene derivative crystal and salt, and manufacturing method thereof” (Chia Tai Tianqing Pharmaceutical Group Co., Ltd., priority 2016, dated 2020)

Columns and labels:
[1] = Dynamic vapour sorption (DVS), wet weight gain; type: physicochemical; settings: 25±1° C. and 80±2% RH
[2] = Rough solubility test of A-type crystal and salts of the compound of formula (I); settings: for solubility: thermodynamic from solid; for Approximate solubility: room temperature
Experimental: Hydrochloric acid, acetic acid, sodium acetate, sodium chloride, 5% glucose solution, water (buffer is a buffer solution of acetic acid/sodium acetate).
2 mg of a sample was weighed, and dissolved by adding a solvent (10 μL) thereto at room temperature. […] The total amount of the added solvents was up to 2 mL.

[3] = Crystal stability under humidity, heat and grinding; type: physicochemical; settings: RT/92.5% RH 5 and 10 days; 60° C. 5 and 10 days; grinded 10/20/30 min
[4] = Tissue distribution in SD rats after tail vein injection (LC/MS/MS); type: in vivo
Experimental: SD rats were used as test animals, and the drug concentrations in plasma, lung and breast tissues of rats at different times after administrating the compound of formula (I) via the injection in tail vein were measured by using LC/MS/MS method. The tissue distribution of the compound of the present invention in rats was investigated, and pharmacokinetic characteristics thereof were evaluated.
Appropriate amounts of samples were weighed, and Luminespib, Ganetespib and the compound of formula (I) of the present invention were respectively formulated into a clear solution with a concentration of 2.5 mg/mL for intravenous injection, wherein the solvent was consisted of 10% (v/v) of DMSO, 14% (v/v) of polyoxyethylene hydrogenated castor oil 40, and 76% (v/v) of 5% aqueous glucose solution.
9 SD male rats were divided into three groups, three rats per group. The rats were administered intravenously through tail vein at a dose of 1 mg/kg after being normally fed.
Samples of blood, lung and breast tissues were collected from the rats in three groups at 0.5, 6, and 24 hours after administration, respectively. The blood sample was separated by centrifugation at 4° C., 3000 rpm/min for 15 min within half an hour after collection, so as to obtain plasma sample. The resulting plasma sample was deposited in polypropylene tubes and stored at −80° C. for LC/MS/MS analysis. After blood sample was collected, the animals were sacrificed with CO2, and the tissue samples were collected. Each tissue sample was washed twice with cold deionized water and adhered onto filter paper. Each tissue sample was then homogenized several times in MeOH/15 mM PBS (1:2) (5 mL MeOH/15 mM PBS (1:2) per gram of tissue, with dilution coefficient of 6), to ensure the formation of homogeneous phase. The whole process was carried out at a freezing point temperature. The homogenized samples were quickly frozen by using dry ice and stored at −80° C. for bioassay.
The contents of the test compounds in the plasma, lung and breast tissues of the rats after the administration by injection were measured with LC/MS/MS method.

[5] = test system: BT-474 tumor cells; assay: In vivo pharmacodynamic evaluation in BT-474 breast cancer transplanted tumors in nude mice
Experimental: BT-474 tumor cells were subcutaneously inoculated into the right axillary fossa of nude mice at 5×10^6/mouse to form transplanted tumors. When the volume thereof reached 100-200 mm^3, the animals were randomly grouped based on tumor volumes: 6 mice in negative control group; 6 mice in positive control group; and 6 mice in each test group. The mice in the treatment groups were intravenously injected with different concentrations of positive drug Ganetespib (20 mg/kg) and the compound of formula (I) (10 mg/kg and 20 mg/kg) three times a week, and the mice in the negative control group were administrated with equal amount of vehicles at the same time. The length (A) and width (B) of the tumor were measured twice a week by using a vernier caliper, and the tumor volume V=A×B^2/2 was thereby calculated. The calculation of relative tumor volume (RTV) follows: RTV=Vt/V0, wherein Vt was the tumor volume at the end of administration, and V0 was the tumor volume measured before administration to each cage. The pharmacodynamic evaluation index of antitumor activity was the relative tumor proliferation rate T/C (%), and the calculation formula was: TIC (%)=TRTV/CRTV×100%, wherein TRTV: RTV of the treatment group; CRTV: RTV of the negative control group. Therapeutic efficacy evaluation criteria: T/C %>60% was ineffective; T/C %≤60% with P<0.05 after being statistically processed was effective. […]

[6] = 0.9% NaCl solution, saline or isotonic
[7] = 5% glucose solution, saline or isotonic
[8] = acetic acid/sodium acetate buffer pH 3.5, pH 3.5, aqueous buffer
[9] = acetic acid/sodium acetate buffer pH 4.5, pH 4.5, aqueous buffer
[10] = acetic acid/sodium acetate buffer pH 5.5, pH 5.5, aqueous buffer
[11] = acetic acid/sodium acetate buffer pH 6.8, pH 6.8, aqueous buffer
[12] = acetic acid/sodium acetate buffer pH 7.5, pH 7.5, aqueous buffer
[13] = rats, injection dose of 1 mg/kg, same dose

CCNC(=O)c1onc(-c2cc(C(C)C)c(O)cc2O)c1-c1ccc2c(c1)CCNC2 [A-type crystal]
wet weight gain ΔW % [1]: about 0.45% | solubility ([2]; 0.01N HCl, simulated gastric fluid): 800 to 1000 µg/mL | solubility ([2]; 0.1N HCl, simulated gastric fluid): < 1000 µg/mL | solubility [2, 6]: < 1000 µg/mL | solubility [2, 7]: < 1000 µg/mL | solubility [2, 8]: 80000 to 100000 µg/mL | solubility [2, 9]: 30000 to 50000 µg/mL | solubility [2, 10]: < 1000 µg/mL | solubility ([2]; acetic acid/sodium acetate buffer pH 6.5, pH 6.5, aqueous buffer): < 1000 µg/mL | solubility [2, 11]: < 1000 µg/mL | solubility [2, 12]: < 1000 µg/mL | solubility ([2]; water): < 1000 µg/mL | crystal transformation [3]: no crystal transformation

CCNC(=O)c1onc(-c2cc(C(C)C)c(O)cc2O)c1-c1ccc2c(c1)CCNC2 [Compound of formula (I), 3(2,4dihydroxy-5-isopropylphenyl)-N-ethyl-4(1,2,3,4-tetrahydroisoquinolin-6-yl)isoxazole-5-carboxamide]
solubility depending on buffer pH (in words) ([2]; conclusion from Table 5): higher solubility in the buffer of pH 3.5-4.5 | Breast tissue exposure ([4]; SD rats, 1 mg/kg iv): 7.226 µM·h | Lung exposure ([4]; SD rats, 1 mg/kg iv): 30.933 µM·h | Plasma exposure ([4]; SD rats, 1 mg/kg iv): 0.415 µM·h | concentrations in lung and breast tissues compared with Luminespib and Ganetespib (in words) [4, 13]: significantly higher | tissue exposures compared with Luminespib and Ganetespib (in words) [4, 13]: significantly greater | TGI (%) ([5]; 10 mpk iv three times a week, day 35 (administration stopped day 18)): 120% | antitumor effect compared with Ganetespib (in words) ([5]; 10 mpk versus 20 mpk of Ganetespib, BT-474 transplanted mouse model): significantly superior antitumor effect

CCNC(=O)c1noc(-c2cc(C(C)C)c(O)cc2O)c1-c1ccc(CN2CCOCC2)cc1 [Luminespib, 5[2,4dihydroxy-5-isopropylphenyl]-N-ethyl-4[4-(4-morpholinylmethyl)phenyl]-3-isoxazolecarboxamide, reference compound]
Lung exposure ([4]; SD rats, 1 mg/kg iv): 5.284 µM·h

CCNC(=O)c1onc(-c2cc(C(C)C)c(O)cc2O)c1-c1ccc2c(c1)CCNC2.Cl [hydrochloride, 3-(2,4-dihydroxy-5-isopropylphenyl)-N-ethyl-4-(1,2,3,4tetrahydroisoquinolin-6-yl)isoxazole-5-carboxamide hydrochloride]
solubility [2, 6]: < 2000 µg/mL | solubility [2, 7]: 4600 to 5500 µg/mL | solubility [2, 8]: 9500 to 14200 µg/mL | solubility [2, 9]: 5800 to 7300 µg/mL | solubility [2, 10]: < 2000 µg/mL | solubility [2, 11]: < 2000 µg/mL | solubility [2, 12]: < 2000 µg/mL | solubility compared with A-type crystal (in words) ([2]; conclusion from Table 5): significantly higher solubilities than that of the A-type crystal | solubility ([2]; water): 5300 to 6300 µg/mL

O=S(=O)(O)O [sulfate]
wet weight gain ΔW % [1]: about 0.081%

maleate
wet weight gain ΔW % [1]: about 0.379% | Approximate solubility ([2]; 0.9% NaCl solution): <2000 µg/mL | Approximate solubility ([2]; 5% glucose solution): 2100 to 2300 µg/mL | Approximate solubility ([2]; pH 3.5 buffer (acetic acid/sodium acetate)): 6500 to 7500 µg/mL | Approximate solubility ([2]; pH 4.5 buffer): 3400 to 3900 µg/mL | Approximate solubility ([2]; pH 5.5 buffer): <2000 µg/mL | Approximate solubility ([2]; pH 6.8 buffer): <2000 µg/mL | Approximate solubility ([2]; pH 7.5 buffer): <2000 µg/mL | Approximate solubility ([2]; water): 2200 to 2600 µg/mL
